Results on twelve molecules are retold here after patent publication EP0249561B1, “Compositions using liposome-encapsulated non-steroidal anti-inflammatory drugs” (THE LIPOSOME COMPANY, INC., priority 1986, dated 1987).

For series [1] the following is noted: generally shown by others, cited from earlier work; for half-lives: range for the group.
Series [2] concerns rat stomach mucosa. Conditions: rats dosed with the prostaglandin; cited from earlier work.
In series [3] the test system is female Wistar rats. Briefly: Acute carageenan paw edema model, paw volume by plethysmometer (Control 2 / Example 3). Type of series: in vivo. Conditions: indomethacin 2 mg/kg oral, 30 minutes before carageenan, paw volume 2.5 hours after carageenan. Here is the method: Eight female Wistar rats weighing approximately 100 grams were allowed free access to food and water. A tatoo line was inscribed onto the right rear paw just below the hair line. Initial paw volume was measured by a transducer-linked plethysmometer (Stoelting Co., Chicago, Illinois) which contained a saline solution. The instrument measures paw volumes by an electrical charge difference across two electrodes resulting from the volume displacement by the paw. A transducer corrects this charge difference into cubic centimeters of volume displaced. Following immersion of the paw in the perspex cell to the inscribed line, a direct measurement of the displacement volume was recorded. Rats were orally dosed with 2 mg/kg body weight of indomethacin in polyethylene glycol 400. At 30 minutes post treatment, rats received an injection of 0.1 ml of 1.5% carageenan in saline […] directly into the rear paw pad. The paw volume was again determined 2.5 hours after the carageenan administration. The edema intensity (EI) was calculated: [formula] and averaged for the eight rats. The paw volumes for the eight rats were averaged and the percent swelling inhibition was calculated: % swelling Reduction: [formula] […] Rats were orally dosed with the liposomes, and percent swelling reduction was calculated as in Example 2.

The subject of series [4] is male Wistar rats. Briefly: Acute ulceration after one oral dose of indomethacin, ulcer lengths counted in excised stomachs (Control 1 / Example 2). It counts as in vivo. The settings on record: indomethacin 10 mg/kg, starved rats, 4 hours after dosing. Here is the method:
Twenty 225-250 g male Wistar rats were starved for 18-24 hours prior to dosing. Rats were allowed access to water throughout the study. Ten rats in the free drug control group were then administered one oral dose of indomethacin, dissolved in polyethylene glycol 400 at 7 mg/ml and administered at 10 mg/kg body weight of indomethacin.
Four hours following dosing, rats were sacrificed by carbon dioxide anoxia and their stomachs surgically removed by severing at the cardiac and pyloric sphinctors. The stomachs were opened along the lesser curve, flattened, and washed with saline. Ulcer lengths were counted under a dissecting microscope (American Optical, Buffalo, NY) equipped with an eyepiece micrometer, and lengths were summed and averaged for all animals in a single treatment group.
Ulcer protection was assessed by summing and averaging ulcer lengths (in mm) of the treated group and comparing the value to that of the group administered free drug […]. Percent ulcer inhibition was calculated by dividing the average length of ulceration of the liposome-treated group by the of the corresponding free drug group, and multiplying by 100.
The procedures and materials of Example 1 were employed using 10 mg/kg body weight of indomethacin entrapped in stable plurilamellar vesicles (SPLVs) composed of digalactosyl diglyceride; ulcer protection was assessed as in Example 1.

The subject of series [5] is rats (Wistar). Briefly: Inducing intestinal ulceration (chronic), 4-day oral dosing (Control 4). It counts as in vivo. The settings on record: about 4 mg/kg daily oral over 4 days. Here is the method: Single daily oral dosages of indomethacin at about 4 mg/kg in vehicle or in monophasic vesicles were administered over 4 days. Test animals in this example were rats (Wistar). On the fifth day the full length of the intestines were excised and slit open opposite to the attached mesenteric issue. The mucosal surface was rinsed with saline, the ulcers (including perforations) were quantitated in millimeters as described about or by determination of total surface area of lesions. This was accomplished by means of a planimeter (Zidas, Carl Zeiss, West Germany) optically linked to an SR stereo dissecting microscope (Zeiss) with a draw tube attachment. In this example results were expressed as total mm² of ulcerated surface and as percent inhibition of ulceration when treatment was provided. Average values were calculated based upon a minimum of 5 animals per group from at least duplicate experiments. […] Sham vehicle, however, were nontoxic to the animals. Clearly this method is easily adaptable by those skilled in the art to other nonsteroidal anti-inflammatory therapeutic agents and other animals.

Series [6] relates to rats (Wistar). Briefly: Inducing gastric ulcers (acute), oral administration (Control 3). Type of series: in vivo. The settings on record: for mm Ulceration + SEM: acute oral, 4 hours. The source says: For oral studies, it is convenient to use indomethacin but other nonsteroidal anti-inflammatory therapeutic agent can be similarly employed. This model is also useful in examining other nonsteroidal anti-inflammatory therapeutic agents and other mammals. Simply varying doses will induct gastric ulcers for other agents and mammals in this model. Unlike gastric ulcer protocols, it has been shown that for nonsteroidal anti-inflammatory effects such as indomethacin-induced intestinal lesions to occur, animals must be allowed free acces to food and water during the study.
Indomethacin at dosages between about 2 mg/kg and 10 mg/kg were given in 0.5 ml of neat PEG-400, vehicle or as incorporated into the liposomes at a 200 mg/kg dosage of phospholipid. Four hours following oral administration of test formulations, animals were sacrificed by CO₂ anoxia and the stomachs were excised. For systemically-induced gastric ulceration, dosages of PEG-400 solubilized indomethacin between 4 mg/kg and 50 mg/kg in 0.5 ml were administered subcutaneously. […] Tissue was thoroughly rinsed in saline and the inner mucosal surface was laid flat for microscopic evaluation. Visible ulcers were quantitated using a dissecting microscope (AO Optical, Buffalo, NY) equipped with an eyepiece micrometer. Results using this test were expressed in millimeters of ulceration and in percent inhibition of ulcers where treatment was effected. For all studies, a minimum of 10 animals per experimental group were employed. Experiments were conducted in triplicate, thereby representing a minimum of 30 rats per group.

For `CC(C(=O)O)c1cccc(Oc2ccccc2)c1` (stereo not shown) [fenoprofen], in series [1], the blood level half-lives entry is recorded as “under four”.

Turning to Prostaglandin E₂, the “increase in the major gastric surface protective surfactant” value in series [2] is 2-6 fold.

For `Cc1ccc(C(=O)c2ccc(CC(=O)O)n2C)cc1` [tolmetin], the blood level half-lives result in series [1] was “under four”.

For `Cc1cccc(Nc2ccccc2C(=O)O)c1C` [Mefenamic acid], the blood level half-lives entry in series [1] is on record as “about four”.

Regarding `CN1C(C(=O)Nc2ccccn2)=C(O)c2ccccc2S1(=O)=O` [piroxicam], the half-lives result in series [1] was “over ten hours to three days”.

In the case of `O=C(O)Cc1ccccc1Nc1c(Cl)cccc1Cl` [diclofenac], the blood level half-lives result in series [1] is given as “under four”.

Turning to `COc1ccc2c(c1)c(CC(=O)O)c(C)n2C(=O)c1ccc(Cl)cc1` [Indomethacin in PEG-400, indomethacin], the “% SWELLING REDUCTION” value in series [3] turned out to be 37.2%. Besides, the blood level half-lives entry in series [1] is reported as “under four”. The “mm ULCERATION” value in series [4] came to 43.9 mm. For the same molecule, the mortality rate in series [5] was 20-30%. The “total ulcer length, high reached in individual experiments” value in series [6] (10 mg indomethacin/kg body weight, P.O.) is 45 mm. Besides, the “mm Ulceration + SEM” value in series [6] (indomethacin 2 mg/kg) amounted to 1.1 ± 0.3 mm; in series [6] (indomethacin 4 mg/kg) it was 3.4 ± 0.8 mm; in series [6] (indomethacin 6 mg/kg) it was 9.7 ± 1.2 mm; in series [6] (indomethacin 8 mg/kg), 22.3 ± 3.4 mm; in series [6] (indomethacin 10 mg/kg), 23.3 ± 2.6 mm; in series [6] (indomethacin 10 mg/kg, listed as indomethacin in PEG-400), 25 mm.

As to `CC(=O)Oc1ccccc1C(=O)O` [acetylsalicylic, Acetylsalicylic Acid (ASA)], the blood level half-lives entry in series [1] is reported as “under four”.

`CCCCC1C(=O)N(c2ccccc2)N(c2ccccc2)C1=O` [phenylbutazone]: the half-lives result in series [1] is listed as “over ten hours to three days”.

In the case of `Cc1ccc(Cl)c(Nc2ccccc2C(=O)O)c1Cl` [meclofenamate], the blood level half-lives result in series [1] is reported as “under four”.

On to `CC1=C(CC(=O)O)c2cc(F)ccc2/C1=C\c1ccc([S+](C)[O-])cc1` (stereo not shown) [sulindac], for which the half-lives result in series [1] is “over ten hours to three days”.

As for `O=C(O)c1cc(-c2ccc(F)cc2F)ccc1O` [diflunisal], the half-lives entry in series [1] is recorded as “over ten hours to three days”.
